Assay type in all cases: cell-based
The test system of assay [1] is E. coli ATCC25922. Briefly: MIC determination, broth microdilution (CLSI). Conditions: Escherichia coli, ATCC25922, strain 1. (In general: Dilution methods test growth across graded concentrations, often in twofold steps.)
Assay [2] has as its system K. pneumoniae 60. Briefly: MIC determination, broth microdilution (CLSI). The settings on record: Klebsiella pneumoniae, 60, strain 2.
The subject of assay [3] is E. cloacae 34654. Briefly: MIC determination, broth microdilution (CLSI). Conditions: Enterobacter cloacae, 34654, strain 3.
For assay [4], the system named is C. freundii K21/3034. Briefly: MIC determination, broth microdilution (CLSI). Conditions: Citrobacter freundii, K21/3034, strain 4.
For assay [5], the system named is M. morganii 126/3048. Briefly: MIC determination, broth microdilution (CLSI). Conditions: Morganella morganii, 126/3048, strain 5.
The test system of assay [6] is P. aeruginosa PAO1. Briefly: MIC determination, broth microdilution (CLSI). The settings on record: Pseudomonas aeruginosa, PAO1, strain 6.
The test system of assay [7] is P. aeruginosa 2297 (AmpC wt). Briefly: MIC determination, broth microdilution (CLSI). Conditions: Pseudomonas aeruginosa, strain 7.
The subject of assay [8] is P. aeruginosa 2297-con (AmpC derepressed). Briefly: MIC determination, broth microdilution (CLSI). The settings on record: Pseudomonas aeruginosa, read-out: strain 8 MIC, strain 8.
For assay [9], the system named is A. baumannii ATCC15308. Briefly: MIC determination, broth microdilution (CLSI). The settings on record: Acinetobacter baumannii, ATCC15308, strain 9.
The subject of assay [10] is S. maltophilia ICB7569. Briefly: MIC determination, broth microdilution (CLSI). The settings on record: Stenotrophomonas maltophilia, ICB7569, strain 10.
Assay [11] deals with S. aureus 133. Briefly: MIC determination, broth microdilution (CLSI).
In assay [12] the test system is H. influenzae ATCC 49247. Briefly: MIC determination, broth microdilution (CLSI). The settings on record: Haemophilus influenzae, ATCC49247, strain 12; broth microdilution; read-out: MIC strain 12 (H. influenzae ATCC 49247).
Assay [13] relates to S. pneumoniae 113. Briefly: MIC determination, broth microdilution (CLSI). Conditions: Streptococcus pneumoniae, 113, strain 13; broth microdilution; read-out: MIC strain 13 (S. pneumoniae 113).
Assay [14] relates to B. fragilis 6688. Briefly: MIC determination, broth microdilution (CLSI). The settings on record: Bacteroides fragilis, 6688, strain 15; broth microdilution; read-out: MIC strain 15 (B. fragilis 6688).
Assay [15] deals with C. perfringens DSM756. Briefly: microbe, parasite or virus in culture. The settings on record: Clostridium perfringens, DSM756, read-out: MIC strain 16 (C. perfringens DSM756), strain 16; broth microdilution.
Assay [16] concerns E. coli J62. Briefly: MIC determination, broth microdilution (CLSI). The settings on record: Escherichia coli, J62, strain 17; broth microdilution; read-out: MIC strain 17 (E. coli J62).
In assay [17] the test system is E. coli J62-TEM-3. Briefly: MIC determination, broth microdilution (CLSI). Conditions: Escherichia coli, J62TEM3, read-out: MIC strain 18 (E. coli J62-TEM-3), strain 18; broth microdilution.
Assay [18] deals with Bacteria. Briefly: MIC determination in combination with β-lactamase inhibitors (constant 4 μg/mL).
[19] abbreviates: Staphylococcus aureus, 133, strain 11, read-out: strain 11 MIC.
[20] abbreviates: Staphylococcus aureus, 133, strain 14, broth microdilution, read-out: MIC strain 14 (S. aureus 133).

Converted amounts (≈) assume the structure as drawn. Where two headings read alike, the source gives them in different places.

Consider six compounds from patent US9556165B2 (priority 2012, dated 2017).

For the compound `CN1CC[C@H](NC(=N)c2ccc(OC[C@H](O/N=C(\C(=O)N[C@@H]3C(=O)N(OS(=O)(=O)O)C3(C)C)c3csc(N)n3)C(=O)O)cc2)C1` [Example 101], the MIC in assay [1] worked out at 0.125 mg/L (≈ 0.187 µM); in assay [2], 0.125 mg/L (≈ 0.187 µM); in [3], 0.125 mg/L (≈ 0.187 µM); in assay [4], 0.125 mg/L (≈ 0.187 µM); in assay [5] it was 0.125 mg/L (≈ 0.187 µM); in [6], 2 mg/L (≈ 2.99 µM). Also, the MIC in assay [7] is 4 mg/L (≈ 5.98 µM); in assay [8] it was 2 mg/L (≈ 2.99 µM); in assay [9], 4 mg/L (≈ 5.98 µM); in assay [10] it was 8 mg/L (≈ 12 µM); in [11] (setting [19]), at most 0.063 mg/L; in assay [12], at most 0.063 mg/L. Moreover, the MIC in assay [13] stood at 0.5 mg/L (≈ 0.748 µM); in assay [14], 8 mg/L (≈ 12 µM); in assay [15], 2 mg/L (≈ 2.99 µM); in assay [16] it was 0.125 mg/L (≈ 0.187 µM); in assay [17], 8 mg/L (≈ 12 µM). The “MIC strain 19 (E. coli J62-TEM-3 + 4 μg/mL clavulanic acid)” value in assay [18] is “≦0.063 mg/L”. In addition, the “MIC strain 20 (E. coli J62-TEM-3 + 4 μg/mL sulbactam)” value in assay [18] was “≦0.063 mg/L”. Besides, in assay [18], the “MIC strain 21 (E. coli J62-TEM-3 + 4 μg/mL tazobactam)” value is listed as 0.125 mg/L.
For the compound `CC1(C)[C@H](NC(=O)/C(=N\O[C@@H](COc2ccc(C(=N)NC3CNC3)cc2)C(=O)O)c2csc(N)n2)C(=O)N1OS(=O)(=O)O` [Example 107, (2S)-2-({[(1Z)-1-(2-Amino-1,3-thiazol-4-yl)-2-{[(3S)-2,2-dimethyl-4-oxo-1-(sulfooxy)azetidin-3-yl]amino}-2-oxoethylidene]amino}oxy)-3-{4-[N-(azetidin-3-yl)carbamimidoyl]phenoxy}propanoic acid], the MIC was at most 0.063 mg/L in assay [1]; 0.125 mg/L (≈ 0.195 µM) in [2]; 0.25 mg/L (≈ 0.39 µM) in assay [3]; at most 0.063 mg/L in assay [4]; at most 0.063 mg/L in assay [5]; 1 mg/L (≈ 1.56 µM) in [6]. For the same compound, the MIC in [7] was 1 mg/L (≈ 1.56 µM); in assay [8], 1 mg/L (≈ 1.56 µM); in assay [9], 1 mg/L (≈ 1.56 µM); in assay [10], 4 mg/L (≈ 6.24 µM); in [11] (setting [19]), at most 0.063 mg/L; in assay [11] (setting [20]), 32 mg/L (≈ 49.9 µM). Besides, the MIC in assay [12] was at most 0.063 mg/L; in [13], 0.5 mg/L (≈ 0.78 µM); in assay [14] it was 8 mg/L (≈ 12.5 µM); in assay [15], 0.125 mg/L (≈ 0.195 µM); in assay [16] it was 0.125 mg/L (≈ 0.195 µM); in [17] it was 4 mg/L (≈ 6.24 µM). Besides, in [18], the “MIC strain 19 (E. coli J62-TEM-3 + 4 μg/mL clavulanic acid)” value is given as “≦0.063 mg/L”. In assay [18], the “MIC strain 20 (E. coli J62-TEM-3 + 4 μg/mL sulbactam)” value is on record as “≦0.063 mg/L”. For the same compound, in assay [18], the “MIC strain 21 (E. coli J62-TEM-3 + 4 μg/mL tazobactam)” value is “≦0.063 mg/L”.
`CC1(C)[C@H](NC(=O)/C(=N\O[C@@H](COc2ccc(C(=N)NC(CN)CN)cc2)C(=O)O)c2csc(N)n2)C(=O)N1OS(=O)(=O)O` [Example 102, (2S)-2-({[(1Z)-1-(2-Amino-1,3-thiazol-4-yl)-2-{[(3S)-2,2-dimethyl-4-oxo-1-(sulfooxy)azetidin-3-yl]amino}-2-oxoethylidene]amino}oxy)-3-{4-[N-(1,3-diaminopropan-2-yl)carbamimidoyl]phenoxy}propanoic acid]: the MIC is 0.125 mg/L (≈ 0.19 µM) in [1]; at most 0.063 mg/L in [2]; 0.25 mg/L (≈ 0.38 µM) in assay [3]; at most 0.063 mg/L in assay [4]; at most 0.063 mg/L in assay [5]; 1 mg/L (≈ 1.52 µM) in assay [6]. The MIC in [7] was 2 mg/L (≈ 3.04 µM); in [8] it was 2 mg/L (≈ 3.04 µM); in assay [9], 4 mg/L (≈ 6.08 µM); in assay [10], 4 mg/L (≈ 6.08 µM); in [11] (setting [19]), at most 0.063 mg/L; in [12], at most 0.063 mg/L. In addition, the MIC was 0.5 mg/L (≈ 0.76 µM) in assay [13]; 8 mg/L (≈ 12.2 µM) in assay [14]; 2 mg/L (≈ 3.04 µM) in [15]; 0.125 mg/L (≈ 0.19 µM) in assay [16]; 4 mg/L (≈ 6.08 µM) in assay [17]. In addition, the “MIC strain 19 (E. coli J62-TEM-3 + 4 μg/mL clavulanic acid)” value in assay [18] was “≦0.063 mg/L”. Also, the “MIC strain 20 (E. coli J62-TEM-3 + 4 μg/mL sulbactam)” value in assay [18] is “≦0.063 mg/L”. In [18], the “MIC strain 21 (E. coli J62-TEM-3 + 4 μg/mL tazobactam)” value amounted to 0.125 mg/L.
`CN1CC(NC(=N)c2ccc(OC[C@H](O/N=C(\C(=O)N[C@@H]3C(=O)N(OS(=O)(=O)O)C3(C)C)c3csc(N)n3)C(=O)O)cc2)C1` [Example 109]: the MIC turned out to be 0.125 mg/L (≈ 0.191 µM) in assay [1]; 0.125 mg/L (≈ 0.191 µM) in assay [2]; 0.125 mg/L (≈ 0.191 µM) in assay [3]; 0.125 mg/L (≈ 0.191 µM) in assay [4]; 0.125 mg/L (≈ 0.191 µM) in assay [5]; 2 mg/L (≈ 3.05 µM) in assay [6]. Also, the MIC in assay [7] was 2 mg/L (≈ 3.05 µM); in assay [8], 2 mg/L (≈ 3.05 µM); in assay [9], 2 mg/L (≈ 3.05 µM); in [10] it was 8 mg/L (≈ 12.2 µM); in [11] (setting [19]), at most 0.063 mg/L; in assay [12] it was at most 0.063 mg/L. The MIC in assay [13] was 0.5 mg/L (≈ 0.764 µM); in assay [14] it was 16 mg/L (≈ 24.4 µM); in assay [15], 4 mg/L (≈ 6.11 µM); in [16], 0.125 mg/L (≈ 0.191 µM); in assay [17] it was 2 mg/L (≈ 3.05 µM). For the same compound, in assay [18], the “MIC strain 19 (E. coli J62-TEM-3 + 4 μg/mL clavulanic acid)” value is reported as “≦0.063 mg/L”. The “MIC strain 20 (E. coli J62-TEM-3 + 4 μg/mL sulbactam)” value in assay [18] is reported as 0.25 mg/L. The “MIC strain 21 (E. coli J62-TEM-3 + 4 μg/mL tazobactam)” value in assay [18] is 0.125 mg/L.
Consider `CC1(C)[C@H](NC(=O)/C(=N\O[C@@H](COc2ccc(C(=N)N[C@@H]3CCNC3)cc2)C(=O)O)c2csc(N)n2)C(=O)N1OS(=O)(=O)O` [Example 96], for which the MIC in [1] was 0.125 mg/L (≈ 0.191 µM); in [2], at most 0.063 mg/L; in [3], at most 0.063 mg/L; in assay [4], at most 0.063 mg/L; in [5] it was at most 0.063 mg/L; in assay [6], 1 mg/L (≈ 1.53 µM). For the same compound, the MIC in assay [7] is 1 mg/L (≈ 1.53 µM); in assay [8], 1 mg/L (≈ 1.53 µM); in [9], 1 mg/L (≈ 1.53 µM); in [10], 4 mg/L (≈ 6.11 µM); in assay [11] (setting [19]), at most 0.063 mg/L; in assay [11] (setting [20]), 32 mg/L (≈ 48.9 µM). Moreover, the MIC in assay [12] is at most 0.063 mg/L; in assay [13], 0.5 mg/L (≈ 0.764 µM); in assay [14] it was 8 mg/L (≈ 12.2 µM); in [15] it was 1 mg/L (≈ 1.53 µM); in assay [16] it was 0.125 mg/L (≈ 0.191 µM); in assay [17] it was 4 mg/L (≈ 6.11 µM). Also, the “MIC strain 19 (E. coli J62-TEM-3 + 4 μg/mL clavulanic acid)” value in assay [18] is reported as “≦0.063 mg/L”. For the same compound, the “MIC strain 20 (E. coli J62-TEM-3 + 4 μg/mL sulbactam)” value in assay [18] was “≦0.063 mg/L”. Besides, in assay [18], the “MIC strain 21 (E. coli J62-TEM-3 + 4 μg/mL tazobactam)” value is listed as “≦0.063 mg/L”.
With `CC1(C)[C@H](NC(=O)/C(=N\OC(COc2ccc(C(=N)N)cc2)CC(=O)O)c2csc(N)n2)C(=O)N1OS(=O)(=O)O` (mixture of isomers) [Example 46, 3-({[(1Z)-1-(2-Amino-1,3-thiazol-4-yl)-2-{[(3S)-2,2-dimethyl-4-oxo-1-(sulfooxy)azetidin-3-yl]amino}-2-oxoethylidene]amino}oxy)-4-(4-carbamimidoylphenoxy)butanoic acid], the MIC in assay [1] was determined as 2 mg/L; in assay [2], 1 mg/L; in assay [3] it was 2 mg/L; in assay [4], 1 mg/L; in [5] it was 1 mg/L; in [6], 8 mg/L. The MIC in [7] was 32 mg/L; in assay [8] it was 32 mg/L; in [9] it was 16 mg/L; in [10], 8 mg/L; in [12], 0.25 mg/L; in [13] it was 1 mg/L. Moreover, the MIC in assay [14] turned out to be 32 mg/L; in assay [15] it was 4 mg/L; in assay [16], 2 mg/L; in assay [17], 16 mg/L. For the same compound, the “MIC strain 19 (E. coli J62-TEM-3 + 4 μg/mL clavulanic acid)” value in assay [18] is given as 1 mg/L. The “MIC strain 20 (E. coli J62-TEM-3 + 4 μg/mL sulbactam)” value in assay [18] is recorded as 1 mg/L. For the same compound, the “MIC strain 21 (E. coli J62-TEM-3 + 4 μg/mL tazobactam)” value in assay [18] is 1 mg/L.
